{
  "source": "paper PMC7839672",
  "about": "“Effect of the PHY Domain on the Photoisomerization Step of the Forward Pr→Pfr Conversion of a Knotless Phytochrome” (Chemistry (Weinheim an Der Bergstrasse, Germany), 2020)",
  "target": "T1, All2699g1g2 (g1g2) (Nostoc sp. PCC 7120 = FACHB-418, UniProt A0ACD6B963)",
  "T1 construct": "gene all2699; GAF1-GAF2 (GAF-PHY) photosensory module of All2699; borders, tags and host not in main text",
  "T1 sequence (A0ACD6B963 1-656 limits assumed)": "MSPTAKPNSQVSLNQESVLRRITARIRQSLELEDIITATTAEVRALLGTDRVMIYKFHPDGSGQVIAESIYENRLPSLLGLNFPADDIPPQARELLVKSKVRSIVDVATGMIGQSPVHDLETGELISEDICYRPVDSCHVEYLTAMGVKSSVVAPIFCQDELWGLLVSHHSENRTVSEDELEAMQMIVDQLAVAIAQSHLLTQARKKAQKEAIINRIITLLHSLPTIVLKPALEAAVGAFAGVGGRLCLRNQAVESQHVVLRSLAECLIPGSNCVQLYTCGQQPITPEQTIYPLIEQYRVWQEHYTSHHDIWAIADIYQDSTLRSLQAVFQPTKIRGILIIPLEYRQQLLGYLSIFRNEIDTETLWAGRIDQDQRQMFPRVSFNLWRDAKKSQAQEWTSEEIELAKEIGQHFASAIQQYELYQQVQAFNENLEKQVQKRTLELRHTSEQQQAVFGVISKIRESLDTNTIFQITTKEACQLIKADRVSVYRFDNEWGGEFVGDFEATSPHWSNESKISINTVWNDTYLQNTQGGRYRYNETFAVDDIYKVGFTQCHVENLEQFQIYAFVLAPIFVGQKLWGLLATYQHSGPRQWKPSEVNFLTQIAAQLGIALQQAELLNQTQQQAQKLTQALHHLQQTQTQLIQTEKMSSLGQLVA",
  "test": "steady-state absorption, CD and femtosecond transient absorption of the chromophore-bound protein",
  "assay_type": "binding",
  "settings": "covalent (known biology, not given); chromophore embedded in GAF1 domain; Pr and Pfr states",
  "data": [
    {"smiles": "C/C=C1/C(=C/C2=NC(=C\\c3[nH]c(/C=C4\\NC(=O)C(CC)=C4C)c(C)c3CCC(=O)O)/C(CCC(=O)O)=C2C)NC(=O)[C@@H]1C", "note": "[PCB, phycocyanobilin]", "values": [
      {"measurement": "steady-state absorption, CD and femtosecond transient absorption of the chromoph", "result": "interactions of the PCB chromophore with the “tongue” region of the g2 domain in g1g2"}
    ]}
  ]
}
